{
  "source": "patent US7658706B2",
  "about": "“Vascular graft sterilization and decellularization” (RTI Biologics, Inc., priority 2005, dated 2010)",
  "key": {"collagen": {"system": "collagen", "assay": "Collagen denaturation, quantitative enzyme digestion assay (matrix integrity)", "details": "Triton 1.0%, Cholate 0.25%, 48° C., 24 hours, constant agitation (FIG. 11)", "experimental": "One of the major structural components of the extracellular matrix that gives veins their strength is collagen. Damage to collagen can result in mechanical failures such as increased compliance or aneurism formation. It can also result in a cellular response due the exposure of the triple helix when stability is compromised. The amount of collagen denaturation was assessed to evaluate processing conditions with a quantitative enzyme digestion assay. […] Digested and undigested fractions are separated and hydrolyzed with concentrated hydrochloric acid (HCl) to release free amino acids from each fraction. Following neutralization of the acid in 1 N NaOH, levels of hydroxyproline (an amino acid present in high concentrations in collagen) are assessed in each fraction by a calorimetric method at a wavelength of 550 nm (Chloramine T binding, and reduction of the substrate DAB to a colored end product). The level of denatured collagen in a given sample is then expressed as a percent of the trypsin soluble fraction to the sum of both trypsin soluble and trypsin insoluble fractions.\nAchieving the appropriate log reduction should not come at the expense of the integrity of the extracellular matrix. […] The effect of hydrogen peroxide at 6% at 40° C. and 50° C. on collagen was compared to PAA at 0.1% at the same specified temperatures.\nDigested and undigested fractions are separated and hydrolyzed with concentrated hydrochloric acid (HCl) to release free amino acids from each fraction. Following neutralization of the acid in 1 N NaOH, levels of hydroxyproline (an amino acid present in high concentrations only in collagen) are assessed in each fraction by a calorimetric method (Chloramine T binding, and reduction of the substrate DAB to a colored end product). The level of denatured collagen in a given sample is then expressed as a percent of the trypsin soluble fraction to the sum of both trypsin soluble and trypsin insoluble fractions."}, "human saphenous vein": {"system": "human saphenous vein", "assay": "Histology (H&E) for cellularity and matrix (Example 1)", "details": "1.0% Cholate at 48° C.", "experimental": "Samples of human saphenous veins 10 mm in length were placed in each of the test solution at 37° C. or 48° C. for both 6 and 24 hours while continuously shaking. Samples were then rinsed in PBS at room temperature for 10 minutes while continuously shaking. Following the rinse step, the samples were cut in half and either prepared for histology or immunohistochemistry.\nSamples were placed in 10% buffered formalin immediately following the rinse step and remained there for at least 24 hours before further preparation. Then, the samples were embedded in paraffin and stained with hematoxylin and eosin (H&E) to determine cellularity.\nThe results of the immunohistochemical stain were compared to histology slides stained for cellularity (FIGS. 7 to 10). […] The extracellular matrix is preserved in each segment except with 1.0% Cholate at 48° C."}, "[1]": {"assay": "Biocompatibility of the detergent injected in a rat", "assay_type": "in vivo, Sprague Dawley rats", "details": "0.25%, 0.1%, 0.01%, 0.001% in four sites, 6 weeks after surgery", "experimental": "Four implants from each group go into one rat for a total of 7 rats and 28 implant sites. An eighth rat is injected in four sites with decreasing concentrations of sodium deoxycholate (0.25%, 0.1%, 0.01%, 0.001%) to measure the biocompatibility of the detergent."}, "[2]": {"system": "class I MHC antigens in human saphenous vein", "assay": "Immunohistochemical stain for class I MHC antigens after decellularization (Example 1)", "details": "high concentrations and high temperatures", "experimental": "The effectiveness of cell and cellular debris removal was evaluated using two detergent and two enzyme solutions at various concentrations (Table 2). […] One treatment group combined Triton-X 100 with sodium deoxycholate. Trypsin alone at 0.05% (w/v) or 1.0% (w/v) and in combination with 0.02% (w/v) EDTA were the enzyme solutions used in the decellularization process.\nSamples were then rinsed in PBS at room temperature for 10 minutes while continuously shaking. Following the rinse step, the samples were cut in half and either prepared for histology or immunohistochemistry.\nImmunohistochemistry was used to determine the level of antigens remaining in the tissue after treatment. […] Samples were prepared in frozen blocks and sectioned with a cryostat. The sections were thawed and then rinsed for blocking and antibody staining. Sections were incubated for 30 minutes in primary antibody (mouse anti-HLA-ABC class I MHC) solution and then for anther 30 minutes in diluted biotinylated secondary antibody (Vector ABC Elite kit) solution. An enzyme substrate, NovaRed (Vector), was used to stain the antibodies red. The counter stain was hematoxylin providing a blue contrast.\nA Zeiss Axiophot 2 microscope with a motorized Ludl scanning stage was used with tile field mapping at 5× to capture the entire image in one frame. Particle analysis was performed in Image J to determine the ratio of antigen staining (red) to the total tissue sample.\nA blue and green filter was applied to only allow red to pass. Obvious areas of antigen staining were removed due to this variation in red hue. […] All samples were compared to their negatives for a percentage of red staining.\nThis procedure was applied to all images. […] The treatment groups are labeled according to the detergent or enzyme used followed by the processing conditions. For the Trypsin and Trypsin+EDTA groups, the concentrations ranged from 0.05% (L) to 1.0% (H), the processing temperatures were 37° C. (L), 48° C. (M) and 55° C. (H), and the processing times were 6 hrs (L), 17 hrs (M) and 24 hrs (H)."}},
  "data": [
    {"substance": "sodium deoxycholate", "values": [
      {"measurement": "collagen degradation compared to untreated controls", "setting": "collagen", "result": "A significant degradative effect was not seen"},
      {"measurement": "extracellular matrix in histology", "setting": "human saphenous vein", "result": "large holes within the venous wall and separation between the fibers"},
      {"measurement": "response to injected detergent", "setting": "[1]", "result": "No response was noted"},
      {"measurement": "removal of class I MHC staining", "setting": "[2]", "result": "approximately 100%"},
      {"measurement": "staining", "setting": "[2]", "result": "approximately 0%"}
    ]}
  ]
}
